This note sets out measurements from US9573957B2 (Boehringer Ingelheim International GmbH, priority 2013, dated 2017).

The target of one assay is human LTA4 hydrolase (Homo sapiens (Human), UniProt P09960). The experiment in a line: LTA4H Enzyme assay (peptidase, Arg-AMC cleavage). The class given is biochemical. As to conditions: LTA4H Enzyme 1 nM, Arg-AMC substrate 50 μM, room temperature 1 h, fluorescence. On the procedure: The compounds of the invention are assessed for the ability to interact with human LTA4 hydrolase in an enzymatic assay that measures the ability of the enzyme to cleave the peptide bond of arginyl-aminomethylcoumarin (Arg-AMC). LTA4H Enzyme (1 nM final), Arg-AMC substrate (50 μM final), and compound are combined in a reaction buffer (50 mM Tris-HCl (pH 7.5), 100 mM KCl, 0.5% bovine serum albumin) at room temperature for 1 h. The formation of product is assessed by measuring the fluorescence of aminomethylcoumarin product (excitation wavelength 380 nm/emission wavelength 460 nm).

For assay [1], the system named is synthesis of LTB4 in human whole blood. The experiment in a line: LTB4 production inhibition assay in human whole blood (HWB). The assay is classed as cell-based. The settings on record: heparinized human whole blood, 15 min at 37° C., Calcimycin 20 μM 30 min, plasma LTB4 by HTRF. How it is done:
The compounds of the invention are additionally tested in a human whole blood (HWB) assay to determine their ability to inhibit the synthesis of LTB4 in a cellular system. Compounds are combined with heparinized human whole blood and incubated for 15 minutes at 37° C. Calcimycin (20 μM final, prepared in phosphate-buffered saline, pH 7.4) is then added and the mixture is incubated for another 30 minutes at 37° C. The samples are centrifuged for 5 min at low speed (1500×g) and the plasma layer is removed. Plasma LTB4 concentrations are then measured using an antibody-based homogenous time-resolved fluorescence method (CisBio, Bedford, Mass.).

Sequence of human LTA4 hydrolase (P09960 whole entry): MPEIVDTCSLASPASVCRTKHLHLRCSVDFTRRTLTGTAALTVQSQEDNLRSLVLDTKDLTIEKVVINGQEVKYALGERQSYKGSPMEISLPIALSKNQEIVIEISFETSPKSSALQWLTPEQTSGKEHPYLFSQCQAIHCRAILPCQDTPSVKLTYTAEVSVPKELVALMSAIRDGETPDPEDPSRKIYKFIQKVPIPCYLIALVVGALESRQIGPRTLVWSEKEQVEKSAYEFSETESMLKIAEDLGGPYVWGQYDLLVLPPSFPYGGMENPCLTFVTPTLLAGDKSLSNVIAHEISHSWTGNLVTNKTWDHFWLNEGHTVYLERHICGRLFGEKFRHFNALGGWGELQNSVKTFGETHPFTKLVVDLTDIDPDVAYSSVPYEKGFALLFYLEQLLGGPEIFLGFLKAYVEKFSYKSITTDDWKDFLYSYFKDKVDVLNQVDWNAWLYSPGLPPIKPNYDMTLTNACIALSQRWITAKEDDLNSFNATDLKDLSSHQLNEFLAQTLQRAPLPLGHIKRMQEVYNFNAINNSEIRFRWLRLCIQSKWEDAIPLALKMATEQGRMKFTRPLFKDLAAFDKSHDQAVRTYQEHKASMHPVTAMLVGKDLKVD

`CC(C)(O)C(=O)N1CCN(Cc2ccc3cc(Oc4ncc(-c5ccn[nH]5)cn4)ccc3c2)CC1` [Example 39, 2-Hydroxy-2-methyl-1-(4-{6-[5-(2H-pyrazol-3-yl)-pyrimidin-2-yloxy]-naphthalen-2-ylmethyl}-piperazin-1-yl)-propan-1-one]: the IC50 on human LTA4 hydrolase stood at 2.2 nM; in assay [1], 320 nM.

On to `O=C(C1CC1)N1CCN(Cc2ccc3cc(Oc4ncc(-c5ccn[nH]5)cn4)ccc3c2)CC1` [Example 40, Cyclopropyl-(4-{6-[5-(2H-pyrazol-3-yl)-pyrimidin-2-yloxy]-naphthalen-2-ylmethyl}-piperazin-1-yl)-methanone], for which the figures for the half-inhibitory concentration (IC50) (at human LTA4 hydrolase; in assay [1]) were 1.8 nM and 340 nM, respectively.

On to `CC(C)C(=O)N1CCN(Cc2ccc3cc(Oc4ncc(-c5ccn[nH]5)cn4)ccc3c2)CC1` [Example 41, 2-Methyl-1-(4-{6-[5-(2H-pyrazol-3-yl)-pyrimidin-2-yloxy]-naphthalen-2-ylmethyl}-piperazin-1-yl)-propan-1-one], for which the IC50 was found to be 0.97 nM against human LTA4 hydrolase and 430 nM in assay [1].

As to `OC1CN(Cc2ccc3cc(Oc4ccc(-c5ccn[nH]5)cn4)ccc3n2)C1` [Example 42, 1-{6-[5-(2H-Pyrazol-3-yl)-pyridin-2-yloxy]-quinolin-2-ylmethyl}-azetidin-3-ol], the IC50 came out at 0.92 nM at human LTA4 hydrolase and 190 nM in assay [1].

For `N#CCCNCc1ccc2cc(Oc3ccc(-c4ccn[nH]4)cn3)ccc2n1` [Example 43, 3-({6-[5-(2H-Pyrazol-3-yl)-pyridin-2-yloxy]-quinolin-2-ylmethyl}-amino)-propionitrile], the half-inhibitory concentration (IC50) turned out to be 2 nM against human LTA4 hydrolase and 680 nM in assay [1].

As to `CC[C@H](CC#N)NCc1ccc2cc(Oc3ccc(-c4ccn[nH]4)cn3)ccc2n1` [Example 44, (R)-3-({6-[5-(2H-Pyrazol-3-yl)-pyridin-2-yloxy]-quinolin-2-ylmethyl}-amino)-pentanenitrile], the results for the 50% inhibitory concentration (IC50) (on human LTA4 hydrolase; in assay [1]) were 2.7 nM and 870 nM, respectively.

With `O[C@@H]1CCN(Cc2ccc3cc(Oc4ncc(-c5ccn[nH]5)cn4)ccc3c2)C1` [Example 45, (R)-1-{6-[5-(2H-Pyrazol-3-yl)-pyrimidin-2-yloxy]-naphthalen-2-ylmethyl}-pyrrolidin-3-ol], the IC50 against human LTA4 hydrolase is 2.4 nM; in assay [1], 310 nM.

As for `O[C@H]1CCN(Cc2ccc3cc(Oc4ncc(-c5ccn[nH]5)cn4)ccc3c2)C1` [Example 46, (S)-1-{6-[5-(2H-Pyrazol-3-yl)-pyrimidin-2-yloxy]-naphthalen-2-ylmethyl}-pyrrolidin-3-ol], the IC50 was 2.5 nM at human LTA4 hydrolase and 230 nM in assay [1].

With `CC1(O)CN(Cc2ccc3cc(Oc4ncc(-c5ccn[nH]5)cn4)ccc3c2)C1` [Example 47, 3-Methyl-1-{6-[5-(2H-pyrazol-3-yl)-pyrimidin-2-yloxy]-naphthalen-2-ylmethyl}-azetidin-3-ol], the figures for the IC50 (against human LTA4 hydrolase; in assay [1]) were 1.9 nM and 210 nM, respectively.

Take `O=C(CO)N1CCN(Cc2ccc3cc(Oc4ncc(-c5ccn[nH]5)cn4)ccc3c2)CC1` [Example 48, 2-Hydroxy-1-(4-{6-[5-(2H-pyrazol-3-yl)-pyrimidin-2-yloxy]-naphthalen-2-ylmethyl}-piperazin-1-yl)-ethanone]: the results for the IC50 (on human LTA4 hydrolase; in assay [1]) were 2.9 nM and 610 nM, respectively.

`OC1CN(Cc2ccc3cc(Oc4ncc(-c5ccn[nH]5)cn4)ccc3c2)C1` [Example 49, 1-{6-[5-(2H-Pyrazol-3-yl)-pyrimidin-2-yloxy]-naphthalen-2-ylmethyl}-azetidin-3-ol]: the IC50 against human LTA4 hydrolase came to 2.2 nM; in assay [1] it was 210 nM.

Regarding `N#CCC(=O)N1CC2CCC(C1)N2Cc1ccc2cc(Oc3ccc(-c4ccn[nH]4)cn3)ccc2n1` [Example 50, 3-Oxo-3-(8-{6-[5-(2H-pyrazol-3-yl)-pyridin-2-yloxy]-quinolin-2-ylmethyl}-3,8-diaza-bicyclo[3.2.1]oct-3-yl)-propionitrile], the values for the IC50 (against human LTA4 hydrolase; in assay [1]) were 0.69 nM and 170 nM, respectively.
